Where two headings read alike, the source gives them in different places.
Experiments:
[1] = assay type: physicochemical
[2] = 2-13C uracil concentration in plasma of patients suspected of post-operative gastroparesis; assay type: in vivo, human; settings: 20 minutes after oral 100 mg 2-13C uracil (Example 2 granules); patients with decreased or insufficient gastric-emptying function versus normal type
[3] = system: gastric-emptying function; test: 13C breath test in delayed gastric-emptying model rats (propantheline pretreatment); assay type: in vivo, rat; settings: propantheline 1 mg/kg i.v. 5 min before 10 mg/kg oral 2-13C uracil; expired air 5-60 min
Method: “Propantheline”, an anticholinergic agent, was intravenously administered to rats (female, Wister rat, 8 weeks old: n=3) in such an amount of 1 mg/kg to obtain model animals whose gastric-emptying function was decreased (a delayed gastric-emptying model). […] The expired air samples were collected over time, and the ^13CO2 concentration in each expired air sample was measured.

Structure (SMILES): O=c1cc[nH][13c](=O)[nH]1 [2-^13C uracil]
- Solubility ([1]; pH 2): 0.28 w/v %
- Solubility ([1]; pH 4): 0.28 w/v %
- Solubility ([1]; pH 6): 0.28 w/v %
- Solubility ([1]; pH 8): 0.29 w/v %
- 2-13C uracil concentrations in plasma [2]: lowered

Structure (SMILES): CC(C)[N+](C)(CCOC(=O)C1c2ccccc2Oc2ccccc21)C(C)C [propantheline, Propantheline]
- 13CO2 concentration (Δ13C value) excreted in expired air versus normal rats [3]: significantly lower

Structure (SMILES): O=c1cc[nH]c(=O)[nH]1 [uracil]
- change of solubility depending on the pH of the solution ([1]; pH 2): almost unchanged

From patent US20100055799A1, “TEST AGENT FOR DIAGNOSING DYSPEPSIA” (priority 2006, published 2010)
